Experimental data from US11014911B2, “CDK2 inhibitors” (Pfizer Inc., priority 2019, dated 2021).

Molecular target: CDK2/Cyclin E1 full length (Homo sapiens (Human), UniProt P24941)
Experiment: CDK2/Cyclin E1 full length mobility shift assay
Format: biochemical

Ki [nM]	Compound
3.8	CCCNC(=O)O[C@@H]1CC[C@H](c2cc(NC(=O)Cc3ccccc3S(=O)(=O)C3CC3)n[nH]2)C1 [Example 210, (1R,3S)-3-[3-({[2-(cyclopropylsulfonyl)-phenyl]acetyl}amino)-1H-pyrazol-5-yl]cyclopentyl propylcarbamate]
0.3	Cc1coc(CC(=O)Nc2cc([C@H]3CC[C@@H](OC(=O)NC(C)(C)C)C3)[nH]n2)n1 [Example 296, (1R,3S)-3-(3-{[(4-methyl-1,3-oxazol-2-yl)acetyl]amino}-1H-pyrazol-5-yl)cyclopentyl tert-butylcarbamate]
0.19	CC1(NC(=O)O[C@@H]2CC[C@H](c3cc(NC(=O)Cc4ccc5ncccc5n4)n[nH]3)C2)CC1 [Example 132]
1.7	CC1(NC(=O)O[C@@H]2CC[C@H](c3cc(NC(=O)Cc4cn(CC(F)(F)F)nn4)n[nH]3)C2)CC1 [Example 446, (1R,3S)-3-[3-({[1-(2,2,2-trifluoroethyl)-1H-1,2,3-triazol-4-yl]acetyl}amino)-1H-pyrazol-5-yl]cyclopentyl (1-methylcyclopropyl)carbamate]
1.75	C[C@H]1CCN1C(=O)O[C@@H]1CC[C@H](c2cc(NC(=O)c3ccnn3CCN(C)C)n[nH]2)C1 [Example 596, (1R,3S)-3-{3-[({1-[2-(dimethylamino)ethyl]-1H-pyrazol-5-yl}carbonyl)amino]-1H-pyrazol-5-yl}cyclopentyl (2S)-2-methylazetidine-1-carboxylate]
3.24	O=C(Cc1cc(F)cc(F)c1)Nc1cc([C@@H]2CC[C@H](OC(=O)NCC3CCCOC3)C2)[nH]n1 (single isomer, unassigned) [Example 516]
3.07	O=C(Cc1ccno1)Nc1cc([C@H]2CC[C@@H](OC(=O)NC3CCC3)C2)[nH]n1 [Example 458, (1R,3S)-3-{3-[(1,2-oxazol-5-ylacetyl)amino]-1H-pyrazol-5-yl}cyclopentyl cyclobutylcarbamate]
1.84	CCNC(=O)O[C@@H]1CC[C@H](c2cc(NC(=O)Cc3ccc(F)cc3)n[nH]2)C1 [Example 228, (1R,3S)-3-(3-{[(4-fluorophenyl)acetyl]amino}-1H-pyrazol-5-yl)cyclopentyl ethylcarbamate]

Compound	Ki [nM]
CCCNC(=O)O[C@@H]1CC[C@H](c2cc(NC(=O)Cc3cc(C)ncc3S(C)(=O)=O)n[nH]2)C1 [Example 208, (1R,3S)-3-[3-({[2-methyl-5-(methylsulfonyl)pyridin-4-yl]acetyl}amino)-1H-pyrazol-5-yl]cyclopentyl propylcarbamate]	3.18
COc1cnc(CC(=O)Nc2cc([C@H]3CC[C@@H](OC(=O)NC4(C)CCOC4)C3)[nH]n2)cn1 (single isomer, unassigned) [Example 485]	1.41
O=C(Cc1ccc(C(F)(F)F)nc1)Nc1cc([C@@H]2CC[C@H](OC(=O)NCC3CCOCC3)C2)[nH]n1 [Example 514, (1S,3R)-3-[3-({[6-(trifluoromethyl)pyridin-3-yl]acetyl}amino)-1H-pyrazol-5-yl]cyclopentyl (tetrahydro-2H-pyran-4-ylmethyl)carbamate]	2.78
Cc1cc(Cl)cnc1CC(=O)Nc1cc([C@H]2CC[C@@H](OC(=O)NC3(C)CC3)C2)[nH]n1 [Example 439, (1R,3S)-3-(3-{[(5-chloro-3-methylpyridin-2-yl)acetyl]amino}-1H-pyrazol-5-yl)cyclopentyl (1-methylcyclopropyl)carbamate]	2.37
C[C@@H](CF)NC(=O)O[C@@H]1CC[C@H](c2cc(NC(=O)Cc3cnn(C)c3)n[nH]2)C1 [Example 378, (1R,3S)-3-(3-{[(1-methyl-1H-pyrazol-4-yl)acetyl]amino}-1H-pyrazol-5-yl)cyclopentyl [(2S)-1-fluoropropan-2-yl]carbamate]	0.83
CC1(NC(=O)O[C@@H]2CC[C@H](c3cc(NC(=O)CC4COc5ccccc54)n[nH]3)C2)CCOC1 (single isomer, unassigned) [Example 492]	2.39
